The values below come from patent publication US20220127570A1, “IMMUNE EFFECTOR CELL AND USE THEREOF” (CAFA THERAPEUTICS LIMITED, priority 2018, published 2022).

The conditions of data set [1]: cited from earlier work.
In data set [2] the test system is PLC/PRF/5 subcutaneous xenograft. Nature of the data set: PLC/PRF/5 subcutaneous xenograft model, CAR T in combination with sorafenib. In kind it is in vivo, NPG mice. As for the experimental part: 2) Inoculation of subcutaneous xenograft: PLC/PRF/5 cells in the logarithmic growth phase and in good growth condition were collected by Trypsin digestion and washed once with normal saline. The cell density was adjusted to 1.5×10^7/mL and 200 μL of cell suspension was injected into the subcutaneous part of the right abdomen of NPG mice using a syringe, that is, each mouse was inoculated with 3×10^6 tumor cells, and the inoculation day was the 0th day.
3) Injection of CAR T: On D14 days after subcutaneous inoculation of tumor cells, the average tumor volume was about 260 mm^3. CAR T cells were injected, and the injection dose: 2.0×10^6/animal. On D1-D14 days after subcutaneous inoculation of tumor cells, sorafenib was administered by gavage at a dose of 75 mg/kg, and the gavage volume was 200 ul, once a day, for 14 consecutive days, and the solvent was used as a negative control.

The structures appear in SMILES notation.

As for `CNC(=O)c1cc(Oc2ccc(NC(=O)Nc3ccc(Cl)c(C(F)(F)F)c3)cc2)ccn1` [Sorafenib], the “solubility in polyvinylglycerol 400 (PEG400)” value in data set [1] (PEG400) is “soluble”. Also, in data set [1] (ethanol), the solubility in ethanol result is on record as “slightly soluble”. Besides, the solubility in water entry in data set [1] (water) is given as “poorly soluble”. Also, the tumor inhibiting rate in data set [2] (D18 after injection of CAR T, compared with UTD control group, CAR T 2.0×10^6/animal, sorafenib 75 mg/kg gavage once a day for 14 days) came out at 27.38%. Moreover, the “body weight of mice compared with UTD” value in data set [2] (at the beginning of the treatment) is “decreased”. In addition, the “body weight of mice” value in data set [2] (at the end of the treatment) is recorded as “restored”.
